Laboratory results: publication PMC9613470, “Diverse MarR bacterial regulators of auxin catabolism in the plant microbiome” (Nature Microbiology, 2022)

Tests used:
MarR_73 S28A R46A = MarR_73 S28A R46A (Variovorax paradoxus, UniProt C5CSP2, R46A/S28A); settings: ITC, 25 °C; mutant S28A R46A
Experimental: (§1) The coding sequence for each gene can be found in Supplementary Table 10. MarR expression plasmids were synthesized as codon-optimized genes for E. coli expression by BioBasic in the pLIC-His N-term vector (pMCSG7) and transformed into E. coli BL21 (DE3) Gold cells for expression. […] At an OD600 of 0.8, protein expression was induced by the addition of 0.1 mM IPTG and incubation continued overnight. Cells were collected by centrifugation at 4,500 × g for 20 min at 4 °C in a Sorvall (model RC-3B) swinging bucket centrifuge. Cell pellets were resuspended in buffer A (20 mM potassium phosphate, pH 7.4, 50 mM imidazole, 500 mM NaCl), DNase, lysozyme and a Roche Complete EDTA-free protease inhibitor tablet. Resuspended cells were sonicated and clarified via centrifugation at 17,000 × g for 60 min in a Sorvall (model RC-5B) swinging bucket centrifuge. The lysate was applied to a nickel-nitrilotriacetic acid HP column (GE Healthcare) on an Aktaxpress Fast Performance Liquid Chromatography (FPLC) system (Amersham Bioscience) and washed with buffer A. Protein was eluted with buffer B (20 mM potassium phosphate, pH 7.4, 500 mM imidazole, 500 mM NaCl). Fractions containing the protein of interest were combined and passed over a HiLoadTM 16/60 SuperdexTM 200 gel filtration column. Proteins were eluted in S200 buffer (20 mM HEPES, pH 7.4, 300 mM NaCl). […]

[1] = biological target: Bradyrhizobium japonicum MarR_Bj1 (Bradyrhizobium japonicum, UniProt A0A0A3XYM8); assay: ITC IAA binding to MarR_Bj1; settings: 25 °C, IadR (MarR_73-like)
Experimental: as §1

[2] = test system: A. thaliana ecotype Col-0; assay: Root growth inhibition assay (primary root elongation); type: in vivo, Arabidopsis thaliana; settings: Arabidopsis seedlings with IAA alone, 1 µM IAA
Experimental: A. thaliana ecotype Col-0 seeds were sterilized in 70% household bleach, 0.2% Tween-20 for 10 min with vigorous agitation and then rinsed 10 times with sterile distilled water. Seeds were stratified at 4 °C in sterile distilled water for 1–2 d. […] Then 8 to 10 plants were aseptically transferred to 12 ×12 cm plates containing 0.5x MS agar medium without sucrose where the medium surface was spread with the bacterial inoculum. […] The plant root tip location was marked on plates after transfer to record the initial root tip position. […] Plates were imaged on a document scanner and primary root elongation was determined using imageJ to quantify the change in root tip position from the initial to the final position.
Individual bacterial strains were grown on agar plates of the media types specified above at 28 °C. […] The optical density at 600 nm (OD600) was measured for each washed strain and normalized to OD600 of 0.01 in 10 mM MgCl2. […]
The 175-member synthetic community (SC185-10V) was prepared as described for the 185-member synthetic community used previously[14] by leaving out the 10 isolates from the genus Variovorax. […] The OD600 of the strains in each well was measured and the strains were combined while normalizing the OD600 of each strain in the pool. […] The OD600 values of the 10 cultures were measured and the 10 strains were pooled while normalizing the OD600 of each strain to the same value. […]

MarR_73 R46A = MarR_73 R46A (Variovorax paradoxus, UniProt C5CSP2, R46A); assay: biochemical
Experimental: (§2) The coding sequence for each gene can be found in Supplementary Table 10. MarR expression plasmids were synthesized as codon-optimized genes for E. coli expression by BioBasic in the pLIC-His N-term vector (pMCSG7) and transformed into E. coli BL21 (DE3) Gold cells for expression. […] At an OD600 of 0.8, protein expression was induced by the addition of 0.1 mM IPTG and incubation continued overnight. Cells were collected by centrifugation at 4,500 × g for 20 min at 4 °C in a Sorvall (model RC-3B) swinging bucket centrifuge. Cell pellets were resuspended in buffer A (20 mM potassium phosphate, pH 7.4, 50 mM imidazole, 500 mM NaCl), DNase, lysozyme and a Roche Complete EDTA-free protease inhibitor tablet. Resuspended cells were sonicated and clarified via centrifugation at 17,000 × g for 60 min in a Sorvall (model RC-5B) swinging bucket centrifuge. The lysate was applied to a nickel-nitrilotriacetic acid HP column (GE Healthcare) on an Aktaxpress Fast Performance Liquid Chromatography (FPLC) system (Amersham Bioscience) and washed with buffer A. Protein was eluted with buffer B (20 mM potassium phosphate, pH 7.4, 500 mM imidazole, 500 mM NaCl). Fractions containing the protein of interest were combined and passed over a HiLoadTM 16/60 SuperdexTM 200 gel filtration column. Proteins were eluted in S200 buffer (20 mM HEPES, pH 7.4, 300 mM NaCl). Fractions were combined and concentrated for long-term storage at −80 °C.
(§3) MarR mutant proteins were created by site-directed mutagenesis using primers from Integrated DNA Technologies. […] The mutants were produced and purified using E. coli BL21 (DE3) Gold as described above.
(§4) All ITC measurements were performed at 25 °C using an Auto-ITC200 microcalorimeter (MicroCal/GE Healthcare). The buffer employed was 20 mM HEPES, pH 7.4, 50 mM NaCl and 0.5% dimethly sulfoxide (DMSO) for protein/ligand binding and 20 mM HEPES, pH 7.4 and 300 mM NaCl for DNA/protein binding experiments. For ligand binding experiments, the calorimetry cell (volume […]) was loaded with MarR wild-type, mutant or homologue protein at a concentration of 50 μM. The syringe was loaded with a ligand concentration of 0.5 or 2 mM. […] A typical injection protocol included a single 0.2 μl first injection followed by 20 1.5 μl injections of the syringe sample into the calorimetry cell. The spacing between injections was kept at 180 s and the reference power at 8 μcal s^−1. […] Two independent ITC measurements were performed for each condition.

MarR_73 H32A = MarR_73 H32A (Variovorax paradoxus, UniProt C5CSP2, H32A); assay: biochemical
Experimental: as §2, §3, §4

[3] = biological target: Acinetobacter baumannii MarR_Ab (Acinetobacter baumannii, UniProt A0ABX6CGA9); assay: ITC IAA binding to MarR_Ab
Experimental: as §1

Chain of MarR_73 R46A (C5CSP2 1-158, stated change not applied): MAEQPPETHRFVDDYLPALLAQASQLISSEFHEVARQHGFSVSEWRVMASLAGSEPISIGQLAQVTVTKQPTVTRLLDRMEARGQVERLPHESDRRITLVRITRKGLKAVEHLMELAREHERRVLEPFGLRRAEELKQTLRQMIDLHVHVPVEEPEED
Chain of MarR_73 H32A (C5CSP2 1-158, stated change not applied): as above
Chain of MarR_73 S28A R46A (C5CSP2 1-158, stated change not applied): as above
Chain of Bradyrhizobium japonicum MarR_Bj1 (A0A0A3XYM8 entry or part of it): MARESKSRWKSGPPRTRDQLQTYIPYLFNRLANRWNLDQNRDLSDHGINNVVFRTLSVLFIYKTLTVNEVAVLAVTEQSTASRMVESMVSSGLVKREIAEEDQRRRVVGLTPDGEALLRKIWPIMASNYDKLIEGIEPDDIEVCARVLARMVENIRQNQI

SMILES: O=C(O)Cc1c[nH]c2ccccc12 [IAA, indole-3-acetic acid]
- N (MarR_73 S28A R46A): 1.2 ± 0.2
- N1 [1]: 1.001 ± 0.069
- root growth inhibition (RGI) phenotype [2]: severe RGI phenotype
- Kd (MarR_73 R46A): 11 ± 1 µM
- N (MarR_73 R46A; ITC, 25 °C, mutant R46A): 1.1 ± 0.1
- Kd (MarR_73 H32A): 3.1 ± 0.1 µM
- N (MarR_73 H32A; ITC, 25 °C, mutant H32A): 0.28 ± 0.01
- Kd [3]: 1.29 ± 0.101 µM
- N1 ([3]; ITC, 25 °C, IacR): 0.911 ± 0.011
